In patent publication US11786532B2, “2-pyridones and methods of use thereof” (ALIGOS THERAPEUTICS, INC., priority 2020, dated 2023) one finds EC50 data, which are given here for 2 compounds.

Structures are written as SMILES.

The target in this test is T1, human thyroid receptor beta ligand-binding domain (THR-beta) (Homo sapiens, UniProt P10828).
T1 sequence (P10828 217-461 limits assumed): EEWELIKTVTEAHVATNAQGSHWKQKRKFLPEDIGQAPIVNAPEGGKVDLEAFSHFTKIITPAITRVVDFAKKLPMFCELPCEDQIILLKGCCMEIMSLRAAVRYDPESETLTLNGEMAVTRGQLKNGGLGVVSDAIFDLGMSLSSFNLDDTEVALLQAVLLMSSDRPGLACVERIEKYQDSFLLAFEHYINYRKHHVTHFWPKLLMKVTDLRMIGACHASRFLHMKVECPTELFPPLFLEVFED
Nature of the test: THR Biochemical Assay (Assay 1): TR-FRET thyroid receptor beta coactivator assay. To be noted: TR-FRET SRC2-2 coactivator recruitment, GST-tagged THR-beta LBD 1 nM, 1 hr at rt; read-out: Assay 1 (EC50, THR-beta agonist activity). An excerpt:
THR Biochemical Assay (Assay 1)
The TR-FRET thyroid receptor beta coactivator assay is to be used. The assay uses a terbium-labeled anti-GST antibody, a glutathione-S-transferase (GST) tagged human thyroid receptor, beta or alpha, ligand-binding domain (LBD), and a fluorescein labeled SRC2-2 coactivator peptide. The antibody interacts with the LBD, where the agonist will also bind, resulting in increased affinity for the SRC2-2 coactivator peptide causing energy transfer of the acceptor fluorophore and a FRET emission shift from 495 to 520 nm. The energy transfer is detected as an increase in the fluorescence emission of the fluorescein acceptor, and a decrease in the fluorescence emission of the terbium donor. The assay is to be performed in a 384-well black plate in a final volume of 20 μL. Serial dilution of various test agonists will be performed in DMSO (1% final DMSO concentration) and added to the test plate. Thyroid receptor beta LBD will usually be added to the plate at a final concentration of 1 nM, followed by the mixture of the fluorescein labeled SRC2-2 coactivator peptide, and the terbium-labeled anti-GST antibody at final concentrations of 200 nM and 2 nM respectively. The assay will often be incubated for 1 hr at rt protected from light. The TR-FRET will then be measured on a Victor multilabel reader (Perkin Elmer) using an excitation wavelength of 340 nm with emission filters of 495 nm and 520 nm. The assay will be quantified by expressing a ratio (520:495) of the intensities, and the resulting activation curves; EC50 values are to be generated using a sigmoidal dose response (variable slope) equation in GraphPad™ Prism 8.0.

For orientation: EC50 means the concentration giving half of the maximal effect. Take `CC1CCc2c(Oc3c(Cl)cc(-n4nc(C#N)c(=O)[nH]c4=O)cc3Cl)ccc(=O)n21` (centres unmarked) [Example 35, 2-(3,5-dichloro-4-((3-methyl-5-oxo-1,2,3,5-tetrahydroindolizin-8-yl)oxy)phenyl)-3,5-dioxo-2,3,4,5-tetrahydro-1,2,4-triazine-6-carbonitrile]: the EC50 was below 50 nM.
For `CC1CCc2c(Oc3c(Cl)cc(-n4nc(N)c(=O)[nH]c4=O)cc3Cl)ccc(=O)n21` (centres unmarked) [Example 36, 6-amino-2-(3,5-dichloro-4-((3-methyl-5-oxo-1,2,3,5-tetrahydroindolizin-8-yl)oxy)phenyl)-1,2,4-triazine-3,5(2H,4H)-dione], the EC50 was below 50 nM.
